Experimental data reported in patent US20080015224A1, “Nitroxide superoxide dismutase mimetics to treat extracellular superoxide dismutase deficiencies” (priority 2006, published 2008).
Entries after “also recorded” stand apart in the source; their conditions may differ. Where no end group is shown, it is not given here.

Key:
[1] = system: O2−. generated by xanthine plus xanthine oxidase; assay: Inhibition of O2−. generated by xanthine-xanthine oxidase in vitro (SOD mimetic activity, lucigenin chemiluminescence); type: biochemical; conditions: for Maximum inhibition, %: O2−. generated by xanthine-xanthine oxidase in vitro, means ± SE, 5 studies; for O2−. generated by a xanthine-xanthine oxidase reaction extinguished: tested in PBS at 10^−4 M
Method: (§1) The SOD activities of Ns were evaluated in vitro for their efficacy in dampening O2^−. generated by xanthine (25 μmol/l) plus xanthine oxidase (9 IU/ml). Their lipid solubility was assessed by shaking the Ns in a 50:50 mixture of PBS (Ambion, Austin, Tex.) and chloroform (CHCl3; EM Science, Gibbstown, N.J.), taking an aliquot of the PBS phase, evaporating the CHCl3phase to dryness, reconstituting it in PBS, and assessing the SOD activities in the two solutions. O2^−. was assessed by chemiluminescence with 5 μM lucigenin (AutoLumatPlus LB 953; EG&G, Berthold, Germany). The reduction in the stable peak value for chemiluminescence for each N, relative to vehicle, defined the SOD mimetic activity.
SOD activity by the nitroxides was assessed in vitro (Table 1). […] The ratio of the activity that partitioned into CHCl3 compared with PBS was examined.

[2] = system: spontaneously hypertensive rat (SHR); assay: Acute antihypertensive response (MAP, HR) to graded intravenous doses in anesthetized SHR; type: in vivo; conditions: for acute change in MAP and HR: graded intravenous doses (nitroxides 17-270 μmol/kg; SOD 34-540 U/kg); for ED50 (sensitivity) for changes in MAP and HR: intravenous
Method: Experiments were approved by the Georgetown University Animal Care and Use Committee. Male SHR weighing 250-350 g (Taconic, Germantown, N.Y.) were anesthetized with thiobutabarbital (Inactin; Sigma, St. Louis, Mo.) (10 mg/100 g) after halothane (Halocarbon Laboratories, River Edge, N.J.) induction. Rats received 0.9% NaCl at 2 ml/h IV up to the time of receiving drugs to maintain euvolemia. A femoral artery was cannulated with polyethelene (PE)-50 tubing connected to a digital blood pressure analyzer (Micro-Med, Louisville, Ky.). Animals were equilibrated for 45 min. Thereafter, a nitroxide (17 μmol/kg) was infused intravenously over 10 s. The mean arterial pressure (MAP) and heart rate (HR) were recorded over the first 5 min and at 10 and 15 min. This was followed by doses of 54, 72, 174, and 270 μmol/kg under similar conditions. The same protocol was followed with each nitroxide: T, 4-oxo-tempo (OT), 4-amino-tempo (AT), 3-carboxy-peroxyl (3-CTPY) (Aldrich, Milwaukee, Wis.), 3-carbomyl-proxyl (3-CP) (Sigma), and 4-trimethylammonium-2,2,6,6,-tetramethylpiperidine-1-oxyl iodide (CAT-1) (Molecular Probes, Eugene, Oreg.) (FIG. 3). Doses of bovine Cu/Zn SOD (MW 32,500; Oxis Research, Portland, Oreg.) were selected that had equivalent SOD mimetic activity in vitro to the doses of T used for intravenous studies: 34, 110, 140, 260, 350, and 540 U/kg. SOD injection followed a similar protocol to the nitroxides and was compared with vehicle-injected rats. Additional rats received injections of previously boiled SOD as a further control group. Six rats were studied in each group.
The mean±SE changes in MAP and HR were calculated from the individual dose-response relations. The responsiveness was the maximum effect, and the sensitivity was the expected dose for ED50. Data were analyzed by ANOVA with post hoc testing by the Dunnett test, where appropriate. Statistical significance was taken as P<0.05.

[3] = measured previously in the literature; cited from earlier work
cell membranes = conditions: cited from earlier work
[4] = Lipid solubility: partition of SOD activity between CHCl3 and PBS; type: physicochemical; conditions: 50:50 PBS and chloroform
Method: as §1

[5] = system: mesenteric resistance arteries (MRAs) from EC-SOD −/− and +/+ mice; assay: Contraction of isolated mesenteric resistance arteries (myograph)
Method: FIG. 19: Responses of mouse isolated mesenteric resistance vessles to endothelin-1: comparison of EC-SOD +/+ with −/−. (A) Contraction to endothelin-1, (B) Superoxide production with endothelin-1. Mean±SEM values (n=6-8 per group). Response to endothelin-1 in vessels incubated for 20 min with vehicle, tempol (10^−4 M), PEG-SOD (100 units·ml^−1), and catalase (300 units·ml^−1). Compared to vehicle, ***, p<0.005.
(§2) Reactive oxygen spice (ROS) and endothelin-1 (ET-1) contribute to angiotensin-induced hypertension. We used isolated mesenteric resistance arteries (MRAs) from EC-SOD knockout (−/−) mice (n=10) and EC-SOD wild type (+/+) mice (n=10), as a model to investigate the hypothesis that microvascular ET-1 and superoxide anion (O2.^−) interact to enhance contractility. Tension and O2.^− were quantitated in real time in dihydroethidium (DHE)-loaded MRAs in a myograph equipped with a dual-emission photon detection fluorescence system to measure ethidium (Eth): DHE ratio (E/D) as a direct readout of O2.^− activity. […] PEG-SOD normalized augmented ET-1 contraction (64±4% vs 71±3%; p=ns) and prevent an increase in E/D ratio in MRAs from −/− (0.6±0.5 vs 0.5±0.8, p=ns). In summary, ET-1 generates microvascular O2.^− that enhances its vasoconstrictive action.

[6] = system: mesenteric resistance arteries (MRAs) from EC-SOD −/− and +/+ mice; assay: Superoxide as ethidium:DHE ratio (E/D) in dihydroethidium-loaded mesenteric resistance arteries
Text: as §2
A current study contrasts the responses to endothelin-1 (ET-1) in mesenteric resistance vessels from EC-SOD (−/−) and (+/+) mice. […] Parallel studies of vascular superoxide in dihydroethidium-loaded vessels show enhanced conversion to ethidium, indicating enhanced superoxide formation, in vessels from EC-SOD −/−mice. […] We conclude that in the model system of SOD deficiency caused by gene deletion of EC-SOD in the mouse, tempol can correct enhanced contractions and enhanced oxidative stress. It is thereby envisioned as being effective in preventing hypertension and cardiovascular disease.

[7] = cited from earlier work
EC-SOD +/+ and −/− mice [8] = assay: MAP of conscious mice by telemetry during subcutaneous Ang II infusion; type: in vivo, mouse; conditions: for MAP during Ang II infusion: 400 ng/kg per minute subcutaneously, 2 weeks; for Change in MAP with Ang II (mmHg) / MAP on day 12 of Ang II (mmHg): conscious, telemetry
Text: For the first series, mice were instrumented with indwelling radiotelemeters (DSI) connected to a cather in a carotid artery and placed within the abdomen 2 weeks before placement of osmotic minipumps as described previously (Kawada N, et al. 2002 J Am Soc Nephrol 13 :2860-2868). Mice were anesthetized with isoflurane (1.0 to 1.5% in 100% O2) before insertion of telemeters and allowed to recover from the surgery for 12 days before the start of BP recording. Basal recordings of MAP and heart rate (HR) were measured continuously by telemetry for 3 days. Thereafter, mice were anesthetized with isoflurane for insertion of osmotic minipumps (Direct Corp) to deliver Ang II (400 ng^−1 kg^−1 per minute) or vehicle (Veh) subcutaneously for 2 weeks. An additional group received a higher pressor rate of Ang II infusion (1000 ng/kg^−1 min^−1, SC). The mean values for 24-hour periods are reported. For subsequent series, mice were prepared without placement of telemeters and Ang II was infused only at the slow pressor rate.

EC-SOD +/+ and −/− mice [9] = assay: MAP of anesthetized mice (direct arterial cannulation) during Ang II infusion; type: in vivo, mouse; conditions: 400 ng·kg^−1·min^−1
Method: Cannulae were placed in the jugular vein (for infusion of fluids and renal function markers), the femoral artery (for direct measurement of MAP and HR), and the bladder (for the collection of urine). A tracheostomy was performed to permit free, uninterrupted respiration of room air. [^3H]-Inulin was infused at 0.1 μCi^−1 hr^−1 for the measurement of glomerular filtration rate. [^14C]-Para-amino hippurate (PAH) was infused at 0.2 μCi^−1 hr^−1. Blood was collected from the femoral artery and renal vein at the end of the collection period to measure hematocrit and renal PAH extraction. Renal plasma flow (RPF) was calculated from the clearance of PAH factored by its renal extraction. Renal blood flow was calculated from RPF factored by (1-hematocrit). Renal vascular resistance (RVR) was calculated from MAP factored by RBF. In separate groups, plasma was obtained, and the aorta and kidneys were harvested and prepared for further analysis.

[10] = EC-SOD (+/+), 400 ng·kg^−1·min^−1
[11] = EC-SOD (+/+), 1000 ng·kg^−1·min^−1
[12] = EC-SOD (−/−), 400 ng·kg^−1·min^−1
[13] = EC-SOD (−/−), 1000 ng·kg^−1·min^−1

## CC1(C)CC(N)CC(C)(C)N1[O] [AT, 4-amino-2,2,6,6-tetramethylpiperidine-1-oxyl]
[1]
  Maximum inhibition, %: 88 ± 2 %
  O2−. generated by a xanthine-xanthine oxidase reaction extinguished: 88%
[2]; graded intravenous doses
  maximal reduction in MAP (comparison between compounds): greatest reductions in MAP
[2]
  acute change in MAP and HR: graded reductions; also recorded: decreased MAP and HR acutely
  ED50 (sensitivity) for changes in MAP and HR: highest ED50s
[3]
  redox midpoint potential E1/2: 820 mV

## CC1(C)CC([N+](C)(C)C)CC(C)(C)N1[O].[I-] [CAT-1, 4-trimethylammonium-2,2,6,6,-tetramethylpiperidine-1-oxyl iodide]
[1]
  Maximum inhibition, %: 42 ± 2 %
  O2−. generated by a xanthine-xanthine oxidase reaction extinguished: significantly lower fraction
[2]; graded intravenous doses
  maximal reduction in MAP (comparison between compounds): significantly more modest reductions
[2]
  acute change in MAP and HR: graded reductions; also recorded: decreased MAP and HR acutely
  ED50 (sensitivity) for changes in MAP and HR: lowest ED50
[3]
  redox midpoint potential E1/2: significantly higher values still
Cell membranes
  permeation of cells: does not permeate cells

## CC1(C)CC(C(N)=O)C(C)(C)N1[O] (stereo not shown) [Compound 3-CP, 3-carbomoyl-proxyl]
[1]
  Maximum inhibition, %: 82 ± 1 %
  O2−. generated by a xanthine-xanthine oxidase reaction extinguished: significantly lower fraction
[2]
  acute change in MAP and HR: ineffective; also recorded: did not; also recorded: does not reduce BP in vivo

## CC1(C)CC(=O)CC(C)(C)N1[O] [OT, 4-oxo-tempo]
[1]
  Maximum inhibition, %: 62 ± 2 %
  O2−. generated by a xanthine-xanthine oxidase reaction extinguished: significantly lower fraction
[4]
  ratio of the activity that partitioned into CHCl3 compared with PBS (partition ratio): greatest partition ratio
[2]; graded intravenous doses
  maximal reduction in MAP (comparison between compounds): significantly more modest reductions
  reduction in HR (comparison between compounds): smaller
[2]
  acute change in MAP and HR: graded reductions; also recorded: decreased MAP and HR acutely
  ED50 (sensitivity) for changes in MAP and HR: highest ED50s
[3]
  redox midpoint potential E1/2: 913 mV

## CNC[C@H](O)c1cccc(O)c1 [Phenylephrine]
[5]; MRAs from both groups
  Phenylephrine-induced contractions, EC-SOD −/− versus +/+: similar
[6]; MRAs from both groups
  E/D ratio with phenylephrine: did not change

## Cu/Zn SOD: bovine Cu/Zn SOD (MW 32,500; Oxis Research)
[2]; graded intravenous doses
  delay of MAP lowering versus vehicle: 90 to 110 min
[2]; listed as SOD
  acute change in MAP and HR: no acute effect; also recorded: did not
[7]; 45 min after injection
  injected SOD associated with the kidney: ~10%
[7]; after intravenous administration
  plasma half time: 6 min

## angiotensin II (DRVYIHPF; Angiotensin-2; UniProt P01019 25-32, looked up) [Ang II, pressor peptide infused subcutaneously by osmotic minipump]
EC-SOD +/+ and −/− mice [8]; EC-SOD +/+
  MAP during Ang II infusion: 125±3 mm Hg
EC-SOD +/+ and −/− mice [8]; EC-SOD −/−
  MAP during Ang II infusion: 124±3 mm Hg
EC-SOD +/+ and −/− mice [8]; [10]
  Change in MAP with Ang II (mmHg): +24.4 ± 3.45 mmHg
  MAP on day 12 of Ang II (mmHg): 134.6 ± 3.3 mmHg
EC-SOD +/+ and −/− mice [8]; [11]
  Change in MAP with Ang II (mmHg): +35.7 ± 6.5 mmHg
  MAP on day 12 of Ang II (mmHg): 149.1 ± 4.3 mmHg
EC-SOD +/+ and −/− mice [8]; [12]
  Change in MAP with Ang II (mmHg): +16.7 ± 4.42 mmHg
  MAP on day 12 of Ang II (mmHg): 132.5 ± 4.1 mmHg
EC-SOD +/+ and −/− mice [8]; [13]
  Change in MAP with Ang II (mmHg): +30.7 ± 3.3 mmHg
  MAP on day 12 of Ang II (mmHg): 149.9 ± 5.4 mmHg
EC-SOD +/+ and −/− mice [9]; EC-SOD (+/+)
  MAP on day 12 of Ang II (mmHg): 92.1 ± 3.0 mmHg
EC-SOD +/+ and −/− mice [9]; EC-SOD (−/−)
  MAP on day 12 of Ang II (mmHg): 98.4 ± 2.6 mmHg

## endothelin-1 (CSCSSLMDKECVYFCHLDIIW; ends and bridges not checked; cysteine pairing not given here; UniProt P05305 53-73, looked up) [ET-1, vasoconstrictor peptide used to contract mesenteric resistance arteries]
[5]; MRAs from EC-SOD +/+ mice
  ET-1 induced contraction: 66±5%
[5]; MRAs from EC-SOD −/− mice
  ET-1 induced contraction: 100±3%
[6]; MRAs from EC-SOD +/+ mice
  E/D ratio (ethidium:DHE) with ET-1: 0.5±0.8
[6]; MRAs from EC-SOD −/− mice
  E/D ratio (ethidium:DHE) with ET-1: 3.7±0.5
